# Tests used:
# [1] = tested on: volunteers; conditions: single doses 10 mg or 20 mg sustained release at bedtime; cited from earlier work
# [2] = tested on: patients with temporary sleep disturbance; experiment: Clinical trial: Loughborough sleep log questionnaire; format: in vivo, human; conditions: for Loughborough Sleep Log: Awoke Very Refreshed or Refreshed Responses, %: % of patients
# Text: (§1) The efficacy of triprolidine in enabling a patient to feel refreshed or alert upon waking after taking triprolidine prior to sleeptime was investigated using patients with a history of sleep disorders and utilising triprolidine prepared in accordance with example 3.
# (§2) The study herein utilised the following determination methods:— • (a) Karolinska scale as defined in: Int. J. Neuroscience 52 29-37 (1990); and validation: Sleep 17 (3) 236-41 (1994) • (b) Loughborough Sleep log as defined in: Sleep 17 (2)146-159 (1994); and Sleep 18 (2) 127-134 (1995) • (c) Actimetry—AW4 actimeters (Cambridge Neurotechnology) were worn continuously throughout the study. A button was pressed at night when the subject desired to go to sleep and again in the morning upon waking. The results of the actimeter study were analysed in the manner defined by Home et al (Sleep, 17(2); 146-159).
# (§3) A multiple-dose, placebo-controlled, parallel-group, double-blind, randomised study investigating the effects of 2.5 mg and 5 mg triprolidine in patients with temporary sleep disturbance.
# (§4) Male and Female candidates aged 18 years and above were recruited to one of five research centres by means of local advertising. Candidates were screened by means of a telephone questionnaire and selected candidates invited for interview at the research centre. Key inclusion criteria used to select candidates for the study were: • A record of poor sleep at least 2 nights per week • A record of poor sleep for at least 1 week but not more than 3 months • Sleep disturbance not caused by underlying disease • No excess use of alcohol or drugs • Sleep disturbance affected daytime functioning
# (§5) The candidates came to the research centre on Thursday or Friday and were fitted with a wrist actimeter (AW4 from Cambridge Technology) to establish a baseline measure for SDI and were provided with diary cards to record subjective assessments for the Loughborough Sleep Log and the Karolinska Sleepiness Scale. They returned to the investigational site on the Monday and were issued with the study compositions (2.5 mg triprolidine, 5 mg triprolidine or placebo). The investigator telephoned a central randomisation centre where the subject was randomised to a particular treatment group using a dynamic balanced randomisation algorithm. The subject was given three doses of their allocated study medication and instructed to take a single dose of two tablets 20 minutes before they intended to go to sleep on three consecutive evenings, commencing that evening. The diary cards for the Loughborough Sleep Log and Karolinska Sleepiness Scale were asked to be completed on waking.
# Candidates were required to complete a questionnaire 15 minutes after awaking on the feeling of refreshedness assessed on a 5-point scale, the Loughborough sleep log.
# (§6) 198 candidates completed the study, of whom 178 provided evaluable data. (61 placebo, 60 on 2.5 mg triprolidine and 57 on 5 mg triprolidine. The subjects on 2.5 mg dose took one tablet and placebo those on 5 mg dose took 2×2.5 mg tablets. The subjects on placebo took a dose to match the active treatments (2 tablets).
# Generally the treatment groups were well balanced in terms of the demographic data. Unless otherwise mentioned all group data was analysed using ANOVA. In two cases, namely, how the patient felt 15 minutes after awakening in the Loughborough Sleep Log and the Karolinska Sleepiness Scale at 20 minutes, the two variables were analysed using ANCOVA by including the weekend and the mean of Friday/Saturday/Sunday night as a covariate. The method was a closed test procedure (Williams' test). Each of the tests were to be conducted at the 5% level. The analysis of the secondary endpoints was similarly conducted using the Student's t-tests on parameter estimates taken from the analysis of variance model presented above. […]
# [3] = tested on: patients with temporary sleep disturbance; experiment: Clinical trial: wrist actimetry (SDI, time to sleep onset); format: in vivo, human
# Text: as §1, §2
# SDI % was calculated as follows:— [formula]
# This is the measure of: • 1. The length of time it took to fall asleep • 2. Any awakenings throughout the sleep period • Expressed as a % of total time spent in bed. Study Objectives • To evaluate the effects of two doses of triprolidine compared with placebo. Study Design
# as §3, §4, §5, §6
# The study design used 3 groups. On average, the number of individuals in each of the 3 groups (placebo, 2.5 mg triprolidine and 5 mg triprolidine) was 60±10 patients.
# In the trial, patients were tested during a seven day period and the results have been analysed for a mean of three days in the middle of this period. The effects of triprolidine at dose level 2.5 mg and 5.0 mg are compared with placebo in table 1.
# Generally the treatment groups were well balanced in terms of the demographic data. Unless otherwise mentioned all group data was analysed using ANOVA. […]
# [4] = tested on: patients with temporary sleep disturbance; experiment: Clinical trial: Karolinska 9-point sleepiness scale; format: in vivo, human; conditions: for Karolinska 9-point scale (a) I feel extremely alert, very alert or alert, %: scales 1, 2 or 3
# Text: as §1, §2, §3, §4, §5
# A daytime sleepiness assessment was also made 20 minutes, 2 hours and 4 hours after awaking on the Karolinska 9-point scale, ie. the sleepiness scale.
# as §6
# Generally the treatment groups were well balanced in terms of the demographic data. Unless otherwise mentioned all group data was analysed using ANOVA. In two cases, namely, how the patient felt 15 minutes after awakening in the Loughborough Sleep Log and the Karolinska Sleepiness Scale at 20 minutes, the two variables were analysed using ANCOVA by including the weekend and the mean of Friday/Saturday/Sunday night as a covariate. The method was a closed test procedure (Williams' test). Each of the tests were to be conducted at the 5% level. The analysis of the secondary endpoints was similarly conducted using the Student's t-tests on parameter estimates taken from the analysis of variance model presented above.
# Karolinska's sleepiness scale is set out below and the results for placebo, 2.5 and 5.0 mg doses of triprolidine are shown in tables 4 and 5. […]
# [5] = 2.5 mg, mean of the 3 nights, p<0.05
# [6] = both treatments (2.5 mg and 5 mg), every treatment night
smiles,measurement,setting,value
Cc1ccc(/C(=C\CN2CCCC2)c2ccccn2)cc1 [triprolidine],sleep onset latency compared with placebo,[1],did not significantly alter
same,total sleep time compared with placebo,[1],no effect
same,wakefulness during sleep compared with placebo,[1],no effect
same,"no of times woke up (Loughborough sleep log), Mean","[2]; 2.5 mg dose, Mean of 3",1.22
same,"time to fall asleep (min) (Loughborough sleep log), Mean","[2]; 2.5 mg dose, Mean of 3",23.93 min
same,"no of times woke up (Loughborough sleep log), Mean","[2]; 2.5 mg dose, Mon",1.18
same,"time to fall asleep (min) (Loughborough sleep log), Mean","[2]; 2.5 mg dose, Mon",23.67 min
same,"Loughborough Sleep Log: Awoke Very Refreshed or Refreshed Responses, %","[2]; 2.5 mg dose, Monday",23%
same,"no of times woke up (Loughborough sleep log), Mean","[2]; 2.5 mg dose, Tues",1.37
same,"time to fall asleep (min) (Loughborough sleep log), Mean","[2]; 2.5 mg dose, Tues",24.44 min
same,"Loughborough Sleep Log: Awoke Very Refreshed or Refreshed Responses, %","[2]; 2.5 mg dose, Tuesday",23%
same,"no of times woke up (Loughborough sleep log), Mean","[2]; 2.5 mg dose, Wed",1.11
same,"time to fall asleep (min) (Loughborough sleep log), Mean","[2]; 2.5 mg dose, Wed",20.95 min
same,feeling of refreshedness 15 minutes after waking vs placebo (Loughborough sleep log),[2]; [5],more refreshed
same,"no of times woke up (Loughborough sleep log), Mean","[2]; 5 mg dose, Mean of 3",1.42
same,"time to fall asleep (min) (Loughborough sleep log), Mean","[2]; 5 mg dose, Mean of 3",26.5 min
same,"no of times woke up (Loughborough sleep log), Mean","[2]; 5 mg dose, Mon",1.49
same,"time to fall asleep (min) (Loughborough sleep log), Mean","[2]; 5 mg dose, Mon",22.02 min
same,"no of times woke up (Loughborough sleep log), Mean","[2]; 5 mg dose, Tues",1.42
same,"time to fall asleep (min) (Loughborough sleep log), Mean","[2]; 5 mg dose, Tues",32.08 min
same,"Loughborough Sleep Log: Awoke Very Refreshed or Refreshed Responses, %","[2]; 5 mg dose, Tuesday",8.2%
same,"no of times woke up (Loughborough sleep log), Mean","[2]; 5 mg dose, Wed",1.39
same,"time to fall asleep (min) (Loughborough sleep log), Mean","[2]; 5 mg dose, Wed",24.24 min
same,"Loughborough Sleep Log: Awoke Very Refreshed or Refreshed Responses, %","[2]; 5 mg dose, Wednesday",14.8%
same,individuals with response of sleeping extremely well or very well (morning log of the Loughborough sleep log),[2]; dose not stated,over 35%
same,"SDI (%) (Sleep latency onset and Quality of sleep) (Actimeter), Mean","[3]; 2.5 mg dose 20 min before sleep, Mon",11.33%
same,"SDI (%) (Sleep latency onset and Quality of sleep) (Actimeter), Mean","[3]; 2.5 mg dose, Mean of 3",11.56%
same,"TTSO (min) (Time to Sleep onset) (Actimeter), Mean","[3]; 2.5 mg dose, Mean of 3",15.53 min
same,"TTSO (min) (Time to Sleep onset) (Actimeter), Mean","[3]; 2.5 mg dose, Mon",16.22 min
same,"SDI (%) (Sleep latency onset and Quality of sleep) (Actimeter), Mean","[3]; 2.5 mg dose, Tues",12.15%
same,"TTSO (min) (Time to Sleep onset) (Actimeter), Mean","[3]; 2.5 mg dose, Tues",15.62 min
same,"SDI (%) (Sleep latency onset and Quality of sleep) (Actimeter), Mean","[3]; 2.5 mg dose, Wed",11.2%
same,SDI compared to placebo,"[3]; 2.5 mg, mean of the 3 nights, p<0.01",significantly reduced
same,sleep latency onset compared to placebo,[3]; [5],reduced
same,"SDI (%) (Sleep latency onset and Quality of sleep) (Actimeter), Mean","[3]; 5 mg dose, Mean of 3",12.23%
same,"TTSO (min) (Time to Sleep onset) (Actimeter), Mean","[3]; 5 mg dose, Mean of 3",16.93 min
same,"SDI (%) (Sleep latency onset and Quality of sleep) (Actimeter), Mean","[3]; 5 mg dose, Mon",11.72%
same,"TTSO (min) (Time to Sleep onset) (Actimeter), Mean","[3]; 5 mg dose, Mon",16.16 min
same,"SDI (%) (Sleep latency onset and Quality of sleep) (Actimeter), Mean","[3]; 5 mg dose, Tues",12.71%
same,"TTSO (min) (Time to Sleep onset) (Actimeter), Mean","[3]; 5 mg dose, Tues",17.88 min
same,"SDI (%) (Sleep latency onset and Quality of sleep) (Actimeter), Mean","[3]; 5 mg dose, Wed",11.81%
same,"TTSO (min) (Time to Sleep onset) (Actimeter), Mean","[3]; 5 mg dose, Wed",16.36 min
same,SDI compared with placebo,[3]; [6],reduced
same,sleep latency onset compared with placebo,[3]; [6],reduced
same,"(b) I feel (i) sleepy, [and need to make] some effort or (ii) very sleepy, a great effort to keep awake, %","[4]; 2.5 mg dose, Wednesday, Karolinska scales 8 and 9, on waking",6.5%
same,"Karolinska 9-point scale (a) I feel extremely alert, very alert or alert, %","[4]; 2.5 mg dose, Wednesday, on waking",21.0%
same,"percentage of people feeling alert, very alert or extremely alert on waking vs placebo (Karolinska log)","[4]; 2.5 mg, mean of the 3 nights",greater percentage
same,percentage of people feeling sleepy or very sleepy on waking vs placebo (Karolinska log),"[4]; 2.5 mg, mean of the 3 nights",lower percentage
same,residual hangover effects/morning grogginess,"[4]; 2.5 mg, mean of the 3 nights",no evidence of residual hangover effects/morning grogginess
same,"Karolinska 9-point scale (a) I feel extremely alert, very alert or alert, %","[4]; 5 mg dose, Monday, on waking",6.3%
same,"Karolinska 9-point scale (a) I feel extremely alert, very alert or alert, %","[4]; 5 mg dose, Tuesday, on waking",9.5%
